Where “and” joins values, the source holds several entries; their conditions need not be identical. Equal values may be shown once. Read-outs that look alike come from different tables or passages of the source.
Assays:
ADRB1 = ADRB1 (Homo sapiens, UniProt P08588); assay: GPCR panel, cAMP or calcium FLIPR assays; assay type: cell-based
Experimental: (§1) 28 GPCRs were evaluated through cAMP or calcium FLIPR assays[67].

M3 = M3 (Homo sapiens, UniProt P20309); assay: GPCR panel, cAMP or calcium FLIPR assays; assay type: cell-based
Experimental: as §1

CCR1 (h) = target: T1, CCR1 (h) (Homo sapiens, UniProt P32246); assay: Cerep panel; assay type: binding
T1 construct: purchased Cerep (receptors, ion channels, transporters); Eurofins Panlabs (kinases)
Experimental: (§2) A panel of 52 different receptors, ion channels and transporters was tested by Cerep, Inc. (Redmond, WA).

NE-T transporter (h) = target: T2, NE-T transporter (h) (Homo sapiens, UniProt P23975); assay: Cerep panel; assay type: binding
T2 construct: purchased Cerep (receptors, ion channels, transporters); Eurofins Panlabs (kinases)
Experimental: as §2

ETA = ETA (Homo sapiens, UniProt P25101); assay: GPCR panel, cAMP or calcium FLIPR assays; assay type: cell-based
Experimental: as §1

[1] = mouse PK/PD model, plasma exposure; assay type: in vivo; details: female, C57B6, mouse, 100 mg/kg oral
Description: Compound concentrations are also listed as undiluted (measured) and diluted (extrapolated) in Supplementary Table S2.

A2A = A2A (Homo sapiens, UniProt P29274); assay: GPCR panel, cAMP or calcium FLIPR assays; assay type: cell-based
Experimental: as §1

KOP = KOP (Homo sapiens, UniProt P41145); assay: GPCR panel, cAMP or calcium FLIPR assays; assay type: cell-based
Experimental: as §1

5HT2C = 5HT2C (Homo sapiens, UniProt P28335); assay: GPCR panel, cAMP or calcium FLIPR assays; assay type: cell-based
Experimental: as §1

[2] = system: CD4+ T cells under Treg polarizing conditions; assay: in vitro human Treg differentiation, FOXP3 gene expression; assay type: cell-based; details: 6 days
Description: Supplement Materials and Methods
In vitro human Treg differentiation
Human nTreg Suppressive Assay

A3 = target: T3, A3 (Homo sapiens, UniProt P0DMS8); assay: GPCR panel, cAMP or calcium FLIPR assays; assay type: cell-based
T3 sequence (P0DMS8 1-318): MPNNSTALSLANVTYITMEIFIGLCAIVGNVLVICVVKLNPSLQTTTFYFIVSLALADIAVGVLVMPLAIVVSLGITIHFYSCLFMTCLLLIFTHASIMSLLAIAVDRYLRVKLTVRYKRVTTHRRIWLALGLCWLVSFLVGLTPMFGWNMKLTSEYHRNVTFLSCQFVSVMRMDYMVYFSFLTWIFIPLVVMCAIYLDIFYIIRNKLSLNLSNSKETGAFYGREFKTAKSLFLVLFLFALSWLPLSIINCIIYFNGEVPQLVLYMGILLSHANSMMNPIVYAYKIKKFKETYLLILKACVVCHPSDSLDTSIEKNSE
Experimental: as §1

SAPK4(h) = target: T4, SAPK4(h) (Homo sapiens, UniProt O15264); assay: Kinase panel; assay type: biochemical
T4 construct: purchased Cerep (receptors, ion channels, transporters); Eurofins Panlabs (kinases)
Experimental: (§3) Kinase selectivity was conducted by Eurofins Panlabs Inc (St Charles, MO).

IGF-1R(h) = target: T5, IGF-1R(h) (Homo sapiens, UniProt P08069); assay: Kinase panel; assay type: biochemical
T5 construct: purchased Cerep (receptors, ion channels, transporters); Eurofins Panlabs (kinases)
Experimental: as §3

[3] = system: mouse collagen-induced arthritis (CIA) model; assay: mouse collagen-induced arthritis (CIA) model; assay type: in vivo; details: for reduction of clinical arthritis scores (AUC) vs vehicle, efficacy % inhibition: day 21-35
Experimental: On Day 0, mice (female DBA/1Lacj, Jackson Laboratories; 8–10 weeks) were immunized at the base of the tail with an emulsion containing equal amounts of Chick Type II Collagen (Chondrex, Redmond, WA) and Complete-Freund’s adjuvant (CFA, Chondrex), 100 µg each per mouse, and administered a second immunization boost on day 21. On this day, animals were examined for clinical arthritis scores and randomized into treatment groups. […] Clinical arthritis scores were evaluated from day 21 to 34, and animals were euthanized under CO2 on day 35. Both hind paws from each animal were collected and fixed in 10% neutral buffered formalin for histopathology.

RARα = target: T6, RARα (Homo sapiens, UniProt P10276); assay: nuclear receptor cellular GAL4 reporter assay; assay type: cell-based; details: agonist and antagonist mode; read-out: potency in agonist and antagonist mode
T6 construct: expressed in transfected cells

[4] = target: T7, mu (h) (MOP) (agonist site) (Homo sapiens, UniProt P35372); assay: Cerep panel; assay type: binding
T7 construct: purchased Cerep (receptors, ion channels, transporters); Eurofins Panlabs (kinases)
Experimental: as §2

[5] = 1-month GLP toxicity study in dogs; assay type: in vivo; details: Beagle, in vivo, dog; for AUC(0-t) / Cmax: po, 3 mg/kg; for AUC(0-t): read-out: AUC0-24 h at NOAEL; for Cmax: read-out: Cmax at NOAEL
Experimental: The type of study plan was reviewed and agreed by the Laboratory Animal Welfare Officer and the Animal Ethical Committee (officially known as Dierexperimentencommissie (DEC) Charles River Den Bosch), as required by the Dutch Act on Animal Experimentation (February 1997). Both rat and dog studies were performed in AALAC accredited Charles River Laboratories in the Netherlands. Studies in rats were conducted with 0, 25, 100, and 400 mg/kg per day (n = 10/sex/group) for 1 month. An additional 5 animals/sex in vehicle and high dose were allowed to continue for a 1-month treatment-free recovery period. Studies in dogs were conducted with 0, 3, 10, and 30 mg/kg per day (n = 4/sex/group) for 1 month. A treatment-free recovery period of 1 month (additional 2 dogs/sex/group) was included for both vehicle controls and high dose groups. […] Rats and dogs were examined for mortality, clinical signs, ophthalmoscopic changes, body weight, food consumption, hematology, clinical chemistry, anatomic pathology, and toxicokinetics. In addition, dogs were examined for electrocardiographic changes. Rats and dogs were also assessed for reversal of any effects following a 1-month recovery period. These studies were conducted in compliance with good laboratory practice (GLP) regulations.

[6] = plasma (5-fold diluted, extrapolated), calculated for 5-fold dilution, read-out: concentration in 5-fold diluted plasma
[7] = plasma, mean ± SD, n=10, read-out: concentration in undiluted plasma

T1 sequence (P32246 whole entry): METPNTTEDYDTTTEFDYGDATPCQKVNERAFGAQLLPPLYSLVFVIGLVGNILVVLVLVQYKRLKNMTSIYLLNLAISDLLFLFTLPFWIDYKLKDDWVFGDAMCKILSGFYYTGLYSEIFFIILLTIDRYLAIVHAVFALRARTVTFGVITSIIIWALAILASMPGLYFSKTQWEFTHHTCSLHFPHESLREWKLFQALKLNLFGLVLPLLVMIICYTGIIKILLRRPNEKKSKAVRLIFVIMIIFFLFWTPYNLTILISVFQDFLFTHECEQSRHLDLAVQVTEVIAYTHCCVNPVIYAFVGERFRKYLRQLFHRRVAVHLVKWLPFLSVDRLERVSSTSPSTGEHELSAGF
Chain of KOP (P41145 whole entry): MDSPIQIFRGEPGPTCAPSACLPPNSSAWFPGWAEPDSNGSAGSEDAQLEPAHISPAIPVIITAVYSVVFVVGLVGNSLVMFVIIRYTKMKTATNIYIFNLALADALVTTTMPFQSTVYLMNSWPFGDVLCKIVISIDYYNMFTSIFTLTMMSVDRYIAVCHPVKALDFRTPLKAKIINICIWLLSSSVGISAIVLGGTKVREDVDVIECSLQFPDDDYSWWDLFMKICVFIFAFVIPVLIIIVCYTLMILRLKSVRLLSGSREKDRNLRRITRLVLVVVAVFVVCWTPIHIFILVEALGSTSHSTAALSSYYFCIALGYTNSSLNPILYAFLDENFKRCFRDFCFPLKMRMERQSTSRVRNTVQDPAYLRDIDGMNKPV
Chain of 5HT2C (P28335 33-458, species assumed): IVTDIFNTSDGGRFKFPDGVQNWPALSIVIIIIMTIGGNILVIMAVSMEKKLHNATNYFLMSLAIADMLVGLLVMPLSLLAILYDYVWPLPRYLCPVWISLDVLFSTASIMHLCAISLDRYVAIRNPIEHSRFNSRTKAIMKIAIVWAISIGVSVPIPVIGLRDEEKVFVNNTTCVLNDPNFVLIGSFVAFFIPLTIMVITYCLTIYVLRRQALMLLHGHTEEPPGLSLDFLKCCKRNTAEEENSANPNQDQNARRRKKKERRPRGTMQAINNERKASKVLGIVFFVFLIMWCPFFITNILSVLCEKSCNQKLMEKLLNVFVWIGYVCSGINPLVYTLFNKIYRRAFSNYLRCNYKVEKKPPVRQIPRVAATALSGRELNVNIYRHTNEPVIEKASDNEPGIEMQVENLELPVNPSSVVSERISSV
Chain of ETA (P25101 21-427): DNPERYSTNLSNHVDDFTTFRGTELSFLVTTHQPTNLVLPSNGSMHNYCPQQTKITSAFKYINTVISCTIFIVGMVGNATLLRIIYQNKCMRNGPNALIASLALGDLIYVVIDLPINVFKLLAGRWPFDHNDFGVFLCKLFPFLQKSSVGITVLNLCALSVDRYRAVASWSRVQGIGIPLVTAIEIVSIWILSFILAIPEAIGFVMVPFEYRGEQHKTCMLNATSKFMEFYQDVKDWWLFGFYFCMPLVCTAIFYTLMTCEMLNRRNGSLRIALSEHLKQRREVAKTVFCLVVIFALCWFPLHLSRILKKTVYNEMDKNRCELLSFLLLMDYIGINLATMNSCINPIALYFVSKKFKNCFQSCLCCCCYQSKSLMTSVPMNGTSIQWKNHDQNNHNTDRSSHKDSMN
T5 sequence (P08069 31-1367): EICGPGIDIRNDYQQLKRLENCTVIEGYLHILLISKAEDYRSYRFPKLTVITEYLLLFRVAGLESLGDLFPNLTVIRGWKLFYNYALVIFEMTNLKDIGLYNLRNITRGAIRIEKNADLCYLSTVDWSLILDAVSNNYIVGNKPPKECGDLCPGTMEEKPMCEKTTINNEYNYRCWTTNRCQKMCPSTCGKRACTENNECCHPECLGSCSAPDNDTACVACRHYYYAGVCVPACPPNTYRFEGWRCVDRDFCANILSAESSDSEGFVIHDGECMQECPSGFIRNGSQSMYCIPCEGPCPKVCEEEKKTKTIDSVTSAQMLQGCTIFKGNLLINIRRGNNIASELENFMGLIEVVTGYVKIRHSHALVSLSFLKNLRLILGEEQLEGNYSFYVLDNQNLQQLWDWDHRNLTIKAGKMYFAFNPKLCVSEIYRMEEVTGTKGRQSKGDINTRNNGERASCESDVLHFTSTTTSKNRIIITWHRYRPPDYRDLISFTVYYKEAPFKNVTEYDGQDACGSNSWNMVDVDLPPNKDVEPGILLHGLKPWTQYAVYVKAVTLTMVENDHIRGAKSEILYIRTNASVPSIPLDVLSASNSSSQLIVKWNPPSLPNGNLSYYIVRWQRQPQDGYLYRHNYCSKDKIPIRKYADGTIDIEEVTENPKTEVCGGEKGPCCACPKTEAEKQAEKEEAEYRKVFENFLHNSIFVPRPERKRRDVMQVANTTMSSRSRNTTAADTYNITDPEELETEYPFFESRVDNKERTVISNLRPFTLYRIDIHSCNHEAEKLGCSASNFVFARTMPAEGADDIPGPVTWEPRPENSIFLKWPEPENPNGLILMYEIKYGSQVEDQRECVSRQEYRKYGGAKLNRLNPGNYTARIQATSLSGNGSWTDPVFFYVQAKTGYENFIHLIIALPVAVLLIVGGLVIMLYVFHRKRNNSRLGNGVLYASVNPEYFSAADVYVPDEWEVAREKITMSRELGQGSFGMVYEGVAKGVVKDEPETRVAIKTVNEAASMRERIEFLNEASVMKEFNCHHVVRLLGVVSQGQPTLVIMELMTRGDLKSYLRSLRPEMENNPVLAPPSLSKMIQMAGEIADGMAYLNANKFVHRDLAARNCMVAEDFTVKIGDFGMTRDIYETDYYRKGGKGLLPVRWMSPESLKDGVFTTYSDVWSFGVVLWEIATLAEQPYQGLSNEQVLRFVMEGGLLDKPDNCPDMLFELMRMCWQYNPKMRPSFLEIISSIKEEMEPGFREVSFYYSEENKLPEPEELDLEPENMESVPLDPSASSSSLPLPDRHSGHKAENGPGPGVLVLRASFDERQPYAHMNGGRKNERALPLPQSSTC
Chain of ADRB1 (P08588 whole entry): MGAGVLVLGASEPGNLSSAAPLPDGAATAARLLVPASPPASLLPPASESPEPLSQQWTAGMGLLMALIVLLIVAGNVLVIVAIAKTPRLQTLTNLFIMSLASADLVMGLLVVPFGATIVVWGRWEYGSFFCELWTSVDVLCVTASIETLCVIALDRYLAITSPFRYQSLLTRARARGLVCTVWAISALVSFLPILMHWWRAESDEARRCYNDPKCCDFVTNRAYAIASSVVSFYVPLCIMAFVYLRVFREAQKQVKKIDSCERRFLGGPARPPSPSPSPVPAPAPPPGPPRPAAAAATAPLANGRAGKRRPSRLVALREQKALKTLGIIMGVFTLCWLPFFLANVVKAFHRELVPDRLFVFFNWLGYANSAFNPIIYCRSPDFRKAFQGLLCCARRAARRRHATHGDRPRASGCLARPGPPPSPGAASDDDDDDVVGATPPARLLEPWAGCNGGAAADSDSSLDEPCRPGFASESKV
Chain of A2A (P29274 whole entry): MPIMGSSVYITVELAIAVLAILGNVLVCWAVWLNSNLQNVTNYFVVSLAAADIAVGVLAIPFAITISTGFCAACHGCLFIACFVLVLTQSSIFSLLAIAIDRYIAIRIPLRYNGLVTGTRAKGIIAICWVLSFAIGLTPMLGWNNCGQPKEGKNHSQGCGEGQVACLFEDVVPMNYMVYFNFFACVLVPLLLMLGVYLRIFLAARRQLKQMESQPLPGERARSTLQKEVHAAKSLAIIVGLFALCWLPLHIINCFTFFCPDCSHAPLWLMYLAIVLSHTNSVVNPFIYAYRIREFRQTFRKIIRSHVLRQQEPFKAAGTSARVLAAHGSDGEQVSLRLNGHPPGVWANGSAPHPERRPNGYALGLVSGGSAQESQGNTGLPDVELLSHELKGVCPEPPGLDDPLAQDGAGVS
Chain of M3 (P20309 whole entry): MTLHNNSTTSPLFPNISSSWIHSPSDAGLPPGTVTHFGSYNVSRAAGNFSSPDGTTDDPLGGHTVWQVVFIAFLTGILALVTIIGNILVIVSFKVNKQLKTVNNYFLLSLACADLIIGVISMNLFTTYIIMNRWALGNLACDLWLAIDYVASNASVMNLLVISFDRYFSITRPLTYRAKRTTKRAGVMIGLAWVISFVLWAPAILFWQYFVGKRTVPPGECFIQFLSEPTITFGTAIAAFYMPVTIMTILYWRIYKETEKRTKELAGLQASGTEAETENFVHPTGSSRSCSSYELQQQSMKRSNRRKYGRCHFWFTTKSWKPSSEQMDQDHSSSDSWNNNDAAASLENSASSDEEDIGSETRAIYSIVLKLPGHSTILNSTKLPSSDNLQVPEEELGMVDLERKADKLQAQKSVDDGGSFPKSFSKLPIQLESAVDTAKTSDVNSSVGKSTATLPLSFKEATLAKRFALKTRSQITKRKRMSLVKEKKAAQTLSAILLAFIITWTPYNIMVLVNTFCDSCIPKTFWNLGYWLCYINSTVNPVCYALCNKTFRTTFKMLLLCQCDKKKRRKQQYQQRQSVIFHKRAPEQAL
T2 sequence (P23975 whole entry): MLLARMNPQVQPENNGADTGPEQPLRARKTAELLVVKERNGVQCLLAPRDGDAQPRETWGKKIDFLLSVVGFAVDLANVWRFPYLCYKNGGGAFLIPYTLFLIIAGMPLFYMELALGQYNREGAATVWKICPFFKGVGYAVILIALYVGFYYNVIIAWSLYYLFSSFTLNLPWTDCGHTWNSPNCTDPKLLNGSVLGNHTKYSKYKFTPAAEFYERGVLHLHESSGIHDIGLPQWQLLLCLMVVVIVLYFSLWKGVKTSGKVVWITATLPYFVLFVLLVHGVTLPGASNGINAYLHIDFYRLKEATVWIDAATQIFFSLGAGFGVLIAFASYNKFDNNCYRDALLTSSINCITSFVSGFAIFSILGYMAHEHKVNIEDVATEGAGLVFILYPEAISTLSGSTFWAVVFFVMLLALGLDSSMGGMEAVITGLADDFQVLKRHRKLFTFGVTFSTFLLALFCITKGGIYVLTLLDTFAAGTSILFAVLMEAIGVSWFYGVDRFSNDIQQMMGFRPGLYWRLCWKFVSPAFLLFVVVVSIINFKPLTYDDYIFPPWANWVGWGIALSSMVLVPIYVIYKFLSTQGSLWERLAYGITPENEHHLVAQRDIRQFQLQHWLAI

## CC1CCCN1C(=O)c1nc(C(=O)NCC(C)(C)O)sc1-c1ccc(C(O)(C(F)(F)F)C(F)(F)F)c(Cl)c1Cl (centres unmarked) [JNJ-61803534]
ADRB1; agonist
  EC50: > 12.5 µM
ADRB1; antagonist
  IC50: > 12.5 µM
M3; agonist
  EC50: > 10 µM
M3; antagonist
  IC50: > 10 µM
CCR1 (h)
  inhibition at 1 µM: < 10%
  inhibition at 10 µM: < 10%
NE-T transporter (h)
  inhibition at 1 µM: < 10%
  inhibition at 10 µM: < 10%
ETA; agonist
  EC50: > 10 µM
ETA; antagonist
  IC50: > 10 µM
[1]; [6]
  concentration at 1 h: 10 ± 2.8 µM
  concentration at 2 h: 6.1 ± 3.1 µM
  concentration at 4 h: 5 ± 1.7 µM
  concentration at 7 h: 2.3 ± 0.5 µM
  concentration at 12 h: 0.86 ± 0.4 µM
  concentration at 18 h: 0.24 ± 0.1 µM
[1]; [7]
  concentration at 1 h: 31000 ng/mL and 49.8 µM
  concentration at 2 h: 18900 ng/mL and 30.4 µM
  concentration at 4 h: 15500 ng/mL and 24.9 µM
  concentration at 7 h: 11.7 µM and 7280 ng/mL
  concentration at 12 h: 4.3 µM and 2670 ng/mL
  concentration at 18 h: 1.2 µM and 759 ng/mL
A2A; agonist
  EC50: > 12.5 µM
A2A; antagonist
  IC50: > 12.5 µM
KOP; agonist
  EC50: > 12.5 µM
KOP; antagonist
  IC50: > 12.5 µM
5HT2C; agonist
  EC50: > 10 µM
5HT2C; antagonist
  IC50: > 10 µM
[2]
  FOXP3 expression levels versus DMSO-treated cells: similar
A3; agonist
  EC50: > 12.5 µM
A3; antagonist
  IC50: > 12.5 µM
SAPK4(h)
  activity at 1 µM: 100%
  activity at 10 µM: 112%
IGF-1R(h)
  activity at 1 µM: 95%
  activity at 10 µM: 106%
[3]; 3 mg/kg BID
  disease incidence at day 35: 100%
[3]; 3 mg/kg BID oral
  reduction of clinical arthritis scores (AUC) vs vehicle, efficacy % inhibition: 30%
[3]; 10 mg/kg BID
  disease incidence at day 35: 89%
[3]; 10 mg/kg BID oral
  reduction of clinical arthritis scores (AUC) vs vehicle, efficacy % inhibition: 44%
[3]; 30 mg/kg BID
  disease incidence at day 35: 80%
[3]; 30 mg/kg BID oral
  reduction of clinical arthritis scores (AUC) vs vehicle, efficacy % inhibition: 66%
[3]; 60 mg/kg QD
  disease incidence at day 35: 100%
[3]; 60 mg/kg QD oral, p > 0.05
  reduction of clinical arthritis scores (AUC) vs vehicle, efficacy % inhibition: 13%
[3]; 100 mg/kg BID
  disease incidence at day 35: 45%
[3]; 100 mg/kg BID oral
  reduction of clinical arthritis scores (AUC) vs vehicle, efficacy % inhibition: 88%
[3]; 100 mg/kg, BID, oral
  inhibition of total histopathology score: 94%
  maximum inhibition for final arthritic score: 88%
[3]; mouse, in vivo
  maximum inhibition of clinical score: ~ 90%
RARα
  IC50: > 1.5 µM
[4]
  inhibition at 1 µM: < 10%
  inhibition at 10 µM: 12.2%
[5]; female
  AUC(0-t): 142 µg·h/mL
  Cmax: 7500 ng/mL
[5]; male
  AUC(0-t): 118 µg·h/mL
  Cmax: 7250 ng/mL
[5]; both sexes, 1 month oral
  NOAEL at 1 month: 3 mg/kg

— paper PMC8155022 (Scientific Reports, 2021)
